According to US7115268B1, “Peptides useful for reducing symptoms of toxic shock syndrome and septic shock” (The Rockefeller University, priority 1997, dated 2006):
“And” between values parts separate entries of the source, which are not always exact repeats. Equal values may be shown once. “Also recorded” adds a separate entry of the source. Read-outs that look alike come from different tables or passages of the source.

Experiments:
[1] = parameters: species or system New Zealand White rabbits; conditions: rabbit, in vivo; for antibody titers to the immunizing peptide (ELISA): sc
TSST-1 = TSST-1 (Staphylococcus aureus, UniProt P06886); conditions: mouse, in vivo
[2] = system: PBMC stimulated with SPEZ; format: cell-based, human; conditions: 72 hours
PBMC stimulated with SED = format: cell-based, human; conditions: 72 hours
[3] = system: PBMC stimulated with SPEC; format: cell-based, human; conditions: 72 hours
[4] = system: PBMC stimulated with SPEA; format: cell-based, human; conditions: 72 hours
[5] = system: PBMC stimulated with SPEH; format: cell-based, human; conditions: 72 hours
[6] = parameters: species or system mice; conditions: mouse, in vivo
SEB = SEB (Staphylococcus aureus, UniProt P01552); conditions: mouse, in vivo
SPEA = SPEA (Streptococcus pyogenes phage T12, UniProt P0DJY8); conditions: mouse, in vivo
[7] = system: purified MHC class II molecules; format: binding
[8] = system: PBMC stimulated with SPEG; format: cell-based, human; conditions: 72 hours
PBMC stimulated with SEB = format: cell-based, human; conditions: 72 hours
[9] = system: PBMC stimulated with TSST-1; format: cell-based, human; conditions: 72 hours
PBMC stimulated with SEC = format: cell-based, human; conditions: 72 hours

Chain of SPEA (P0DJY8 31-251): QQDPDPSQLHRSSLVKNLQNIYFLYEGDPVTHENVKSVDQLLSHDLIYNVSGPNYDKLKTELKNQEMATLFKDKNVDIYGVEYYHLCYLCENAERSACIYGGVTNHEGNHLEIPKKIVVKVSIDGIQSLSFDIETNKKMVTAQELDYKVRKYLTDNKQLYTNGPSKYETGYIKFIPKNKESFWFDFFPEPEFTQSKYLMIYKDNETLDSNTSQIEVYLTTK
Chain of TSST-1 (P06886 41-234 limits assumed): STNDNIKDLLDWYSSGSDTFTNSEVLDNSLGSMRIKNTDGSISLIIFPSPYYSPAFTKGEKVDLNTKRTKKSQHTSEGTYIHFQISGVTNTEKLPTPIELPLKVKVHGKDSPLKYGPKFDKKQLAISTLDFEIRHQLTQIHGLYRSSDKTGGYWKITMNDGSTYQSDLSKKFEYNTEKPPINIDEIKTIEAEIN
Chain of SEB (P01552 28-266 limits assumed): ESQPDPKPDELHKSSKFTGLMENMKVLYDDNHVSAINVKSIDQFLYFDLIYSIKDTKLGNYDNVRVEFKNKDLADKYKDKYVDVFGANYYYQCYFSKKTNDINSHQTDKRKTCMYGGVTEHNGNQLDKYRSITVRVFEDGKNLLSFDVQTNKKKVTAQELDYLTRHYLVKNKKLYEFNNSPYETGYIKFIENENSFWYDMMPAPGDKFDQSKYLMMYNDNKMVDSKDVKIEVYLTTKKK

CGKKNVTVQELDYKIRKYLVDNKKLYGC* [peptide 6346]
antibody titers to the immunizing peptide (ELISA) [1]: high titers

CMYGGVTEHEGN [peptide 6343]
Alive/Total TSST-1 (TSST-1): 2 out of two and 2/2 (100%) | Alive/Total TSST-1, percent alive (TSST-1): 2/2 (100%) | inhibition of blastogenesis (tritiated thymidine incorporation) [2]: inhibited blastogenesis | inhibition of blastogenesis (tritiated thymidine incorporation) (PBMC stimulated with SED): inhibited blastogenesis | inhibition of blastogenesis (tritiated thymidine incorporation) [3]: inhibited blastogenesis | inhibition of blastogenesis (tritiated thymidine incorporation) [4]: inhibited blastogenesis | inhibition of blastogenesis (tritiated thymidine incorporation) [5]: inhibited blastogenesis | induction of detectable antibodies [6]: does not induce detectable antibodies | Alive/Total SEB (SEB): 5 out of 6 and 5/6 (83%) | Alive/Total SEB, percent alive (SEB): 5/6 (83%) | Alive/Total SPEA (SPEA): 2 out of 2 and 2/2 (100%) | Alive/Total SPEA, percent alive (SPEA): 2/2 (100%) | induction of detectable antibodies [1]: does not induce detectable antibodies | binding to the MHC complex [7]: binds very strongly | competition for the site of SEB binding on MHC (decreased anti-SEB antibody binding) [7]: able to compete effectively; also recorded: decreased anti-SEB binding at increased concentrations | inhibition of blastogenesis (tritiated thymidine incorporation) [8]: inhibited blastogenesis | inhibition of blastogenesis (tritiated thymidine incorporation) (PBMC stimulated with SEB): inhibited blastogenesis | inhibition of blastogenesis, dose response (PBMC stimulated with SEB): dose-response inhibition of blastogenesis | inhibitory activity of SEB compared with peptide 6346 or peptide 6348 (PBMC stimulated with SEB): more inhibitory activity | inhibition of blastogenesis (tritiated thymidine incorporation) [9]: inhibited blastogenesis | inhibition of blastogenesis (tritiated thymidine incorporation) (PBMC stimulated with SEC): inhibited blastogenesis

CMYGGVTEHEGNGC* [compound 6344]
antibody titers to the immunizing peptide (ELISA) [1]: high titers

CMYGGVTEHEGNKKNVTVQELDYKIRKYLVDNKKLYGC* [peptide 6348]
antibody titers to the immunizing peptide (ELISA) [1]: high titer antibodies; also recorded: significant antibody titers
